# Literature values, collected in article PMC9653884, “Bisindolylmaleimides New Ligands of CaM Protein” (Molecules, 2022).
# Target: CaM
# Conditions: read-out: Kd of reported CaM inhibitor
row,Kd [µM],SMILES
1,14,CN(C)CCCN1c2ccccc2CCc2ccccc21 [Imipramine]
2,5,CC[C@]1(O)C[C@@H]2CN(CCc3c([nH]c4ccccc34)[C@@](C(=O)OC)(c3cc4c(cc3OC)N(C)[C@@H]3[C@]45CCN4CC=C[C@@](CC)(C[C@@]36OC(=O)N(CCCl)C6=O)[C@H]45)C2)C1 [KAR-2]
3,0.71,NCCc1c[nH]c2ccc(O)cc12 [Serotonin]
4,7,NCCCCCCNS(=O)(=O)c1cccc2c(Cl)cccc12 [W7]
